{"source": "ChEMBL document CHEMBL6127042", "about": "“Design, synthesis and antimycobacterial activity of novel benzothiazinones with improved water solubility” (Eur J Med Chem, 2024)", "key": {"[1]": {"system": "Mycobacterium tuberculosis", "experiment": "Antitubercular activity against multidrug resistant Mycobacterium tuberculosis 16833 assessed as bacterial growth inhibition incubated for 7 days in 7H9 medium by alamar blue staining based microplate fluorometric analysis", "format": "functional", "conditions": "Mycobacterium tuberculosis, 16833, 168 h; time 7 day"}, "[2]": {"experiment": "Selectivity index, ratio of CC50 for cytotoxicity against African green monkey Vero cells to MIC for antimycobacterial activity against multidrug resistant Mycobacterium tuberculosis 16833", "format": "toxicity, cell-based", "conditions": "read-out: Selectivity Index"}, "[3]": {"system": "Mycobacterium tuberculosis", "experiment": "Antitubercular activity against multidrug resistant Mycobacterium tuberculosis 16995 assessed as bacterial growth inhibition incubated for 7 days in 7H9 medium by alamar blue staining based microplate fluorometric analysis", "format": "functional", "conditions": "Mycobacterium tuberculosis, 16995, 168 h; time 7 day"}}, "data": [{"smiles": "O=c1nc(N2CCN(CC3CCCCC3)CC2)sc2c([N+](=O)[O-])cc(C(F)(F)F)cc12", "note": "[MACOZINONE]", "values": [{"measurement": "MIC", "setting": "[1]", "result": "< 0.035", "unit": "µM"}, {"measurement": "selectivity ratio", "setting": "[2]", "result": "> 4010"}, {"measurement": "MIC", "setting": "[3]", "result": "< 0.035", "unit": "µM"}]}, {"smiles": "CC(C)(ON=C1CCC(CN2CCN(c3nc(=O)c4cc(C(F)(F)F)cc([N+](=O)[O-])c4s3)CC2)CC1)C(=O)O", "note": "(stereo not drawn)", "values": [{"measurement": "MIC", "setting": "[1]", "result": 0.375, "unit": "µM"}, {"measurement": "selectivity ratio", "setting": "[2]", "result": "> 299"}, {"measurement": "MIC", "setting": "[3]", "result": 0.109, "unit": "µM"}]}, {"smiles": "O=C(O)CNC1CCC(CN2CCN(c3nc(=O)c4cc(C(F)(F)F)cc([N+](=O)[O-])c4s3)CC2)CC1", "note": "(stereo not drawn)", "values": [{"measurement": "MIC", "setting": "[1]", "result": 0.087, "unit": "µM"}, {"measurement": "selectivity ratio", "setting": "[2]", "result": "> 1390"}, {"measurement": "MIC", "setting": "[3]", "result": 0.095, "unit": "µM"}]}, {"smiles": "CC(C)(C)OC(=O)CNC(=O)CCON=C1CCC(CN2CCN(c3nc(=O)c4cc(C(F)(F)F)cc([N+](=O)[O-])c4s3)CC2)CC1", "note": "(stereo not drawn)", "values": [{"measurement": "MIC", "setting": "[1]", "result": 0.048, "unit": "µM"}, {"measurement": "selectivity ratio", "setting": "[2]", "result": "> 1990"}, {"measurement": "MIC", "setting": "[3]", "result": 0.093, "unit": "µM"}]}, {"smiles": "CC(C)(C)OC(=O)CNC(=O)CON=C1CCC(CN2CCN(c3nc(=O)c4cc(C(F)(F)F)cc([N+](=O)[O-])c4s3)CC2)CC1", "note": "(stereo not drawn)", "values": [{"measurement": "MIC", "setting": "[1]", "result": 0.239, "unit": "µM"}, {"measurement": "selectivity ratio", "setting": "[2]", "result": "> 408"}, {"measurement": "MIC", "setting": "[3]", "result": 0.03, "unit": "µM"}]}, {"smiles": "O=C(O)CCON=C1CCC(CN2CCN(c3nc(=O)c4cc(C(F)(F)F)cc([N+](=O)[O-])c4s3)CC2)CC1", "note": "(stereo not drawn)", "values": [{"measurement": "MIC", "setting": "[1]", "result": 0.212, "unit": "µM"}, {"measurement": "selectivity ratio", "setting": "[2]", "result": "> 542"}, {"measurement": "MIC", "setting": "[3]", "result": 0.221, "unit": "µM"}]}, {"smiles": "CC(C)(C)OC(=O)NCCON=C1CCC(CN2CCN(c3nc(=O)c4cc(C(F)(F)F)cc([N+](=O)[O-])c4s3)CC2)CC1", "note": "(stereo not drawn)", "values": [{"measurement": "MIC", "setting": "[1]", "result": "< 0.025", "unit": "µM"}, {"measurement": "selectivity ratio", "setting": "[2]", "result": "> 4080"}, {"measurement": "MIC", "setting": "[3]", "result": 0.041, "unit": "µM"}]}, {"smiles": "C[C@H](NC(=O)C(C)(C)ON=C1CCC(CN2CCN(c3nc(=O)c4cc(C(F)(F)F)cc([N+](=O)[O-])c4s3)CC2)CC1)C(=O)OC(C)(C)C", "note": "(stereo partly drawn)", "values": [{"measurement": "MIC", "setting": "[1]", "result": "< 0.023", "unit": "µM"}, {"measurement": "selectivity ratio", "setting": "[2]", "result": "> 3980"}, {"measurement": "MIC", "setting": "[3]", "result": 0.03, "unit": "µM"}]}, {"smiles": "O=C(O)CON=C1CCC(CN2CCN(c3nc(=O)c4cc(C(F)(F)F)cc([N+](=O)[O-])c4s3)CC2)CC1", "note": "(stereo not drawn)", "values": [{"measurement": "MIC", "setting": "[1]", "result": 0.057, "unit": "µM"}, {"measurement": "selectivity ratio", "setting": "[2]", "result": "> 2070"}, {"measurement": "MIC", "setting": "[3]", "result": 0.057, "unit": "µM"}]}, {"smiles": "CC(C)(C)OC(=O)CCON=C1CCC(CN2CCN(c3nc(=O)c4cc(C(F)(F)F)cc([N+](=O)[O-])c4s3)CC2)CC1", "note": "(stereo not drawn)", "values": [{"measurement": "MIC", "setting": "[1]", "result": 0.031, "unit": "µM"}, {"measurement": "selectivity ratio", "setting": "[2]", "result": "> 3370"}, {"measurement": "MIC", "setting": "[3]", "result": 0.068, "unit": "µM"}]}, {"smiles": "CC(C)(C)OC(=O)CNC(=O)C(C)(C)ON=C1CCC(CN2CCN(c3nc(=O)c4cc(C(F)(F)F)cc([N+](=O)[O-])c4s3)CC2)CC1", "note": "(stereo not drawn)", "values": [{"measurement": "MIC", "setting": "[1]", "result": 0.067, "unit": "µM"}, {"measurement": "selectivity ratio", "setting": "[2]", "result": "> 1400"}, {"measurement": "MIC", "setting": "[3]", "result": 0.066, "unit": "µM"}]}, {"smiles": "C[C@H](NC(=O)CON=C1CCC(CN2CCN(c3nc(=O)c4cc(C(F)(F)F)cc([N+](=O)[O-])c4s3)CC2)CC1)C(=O)OC(C)(C)C", "note": "(stereo partly drawn)", "values": [{"measurement": "MIC", "setting": "[1]", "result": 0.14, "unit": "µM"}, {"measurement": "selectivity ratio", "setting": "[2]", "result": "> 682"}, {"measurement": "MIC", "setting": "[3]", "result": 0.167, "unit": "µM"}]}, {"smiles": "CO[C@H]1/C=C/O[C@@]2(C)Oc3c(C)c(O)c4c(O)c(c(/C=N/N5CCN(C)CC5)c(O)c4c3C2=O)NC(=O)/C(C)=C\\C=C\\[C@H](C)[C@H](O)[C@@H](C)[C@@H](O)[C@@H](C)[C@H](OC(C)=O)[C@@H]1C", "note": "[RIFAMPIN]", "values": [{"measurement": "MIC", "setting": "[1]", "result": "> 12.2", "unit": "µM"}, {"measurement": "MIC", "setting": "[3]", "result": "> 12.2", "unit": "µM"}]}, {"smiles": "O=C(O)CNC(=O)CCON=C1CCC(CN2CCN(c3nc(=O)c4cc(C(F)(F)F)cc([N+](=O)[O-])c4s3)CC2)CC1", "note": "(stereo not drawn)", "values": [{"measurement": "MIC", "setting": "[1]", "result": 0.21, "unit": "µM"}, {"measurement": "selectivity ratio", "setting": "[2]", "result": "> 496"}, {"measurement": "MIC", "setting": "[3]", "result": 0.425, "unit": "µM"}]}, {"smiles": "NNC(=O)c1ccncc1", "note": "[ISONIAZID]", "values": [{"measurement": "MIC", "setting": "[1]", "result": "> 72.9", "unit": "µM"}, {"measurement": "MIC", "setting": "[3]", "result": "> 72.9", "unit": "µM"}]}]}
